In patent US6911443B2 (Bayer Aktiengesellschaft, priority 2000, dated 2005):

molecular target: T1, human Syk (GST-Syk) (Homo sapiens, UniProt P43405); assay: Syk tyrosine kinase inhibitory assay; type: biochemical; settings: Table 11; read-out: Activity grade
T1 construct: A cDNA fragment encoding human Syk openreading frame was cloned; made in house; host or cells: Sf21 insect cells (baculovirus, transfer vector pAcG2T)
In short: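 Readout: streptavidin-captured biotin-AL peptide probed with europium-4G10 anti-phosphotyrosine, time-resolved fluorescence (ex 340/em 615 nm). Reaction ran 1 h at room temperature with 30 μM ATP, 3 μM peptide, 0.65 nM Sf21-expressed GST-Syk and 0.25% DMSO, pH 8.0.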

SMILES | IC50 [nM]
COc1ccc(-c2cc3nccn3c(Nc3cnccc3C(N)=O)n2)cc1OC [Example 12-61] | 500 to 2000
COc1cc(-c2cc3nccn3c(Nc3ccccc3S(C)(=O)=O)n2)ccc1N1CCOCC1 [Example 12-57] | < 500
COc1ccc(-c2cc3nccn3c(Nc3ccncc3)n2)cc1OC [Example 12-8] | < 500
CCSc1nc(-c2ccc(N(C)CCOC)c(OC)c2)cc2nccn12 [Example 12-50] | < 500
COc1ccc(Nc2nc(-c3ccc(OC)c(OC)c3)cc3nccn23)cn1 [Example 12-4] | < 500
c1ccc(Nc2nc(-c3ccc4c(c3)OCO4)cc3nccn23)cc1 [Example 12-22] | 500 to 2000
COc1ccc(Nc2nc(-c3ccc(NCCCN4CCOCC4)c(OC)c3)cc3nccn23)cc1 [Example 12-38] | < 500
COc1ccc(Nc2nc(-c3ccc(OC)c(OC)c3)cc3ncnn23)cc1 [Example 12-15] | < 500

same assay, conditions: Table 13; read-out: Activity grade

SMILES | IC50 [nM]
COc1ccc(-c2cc3nccn3c(Oc3cccc(Br)c3)n2)cc1OC [Example 14-5] | 500 to 2000
COc1ccc(-c2cc3nccn3c(Oc3ccc(Br)cc3)n2)cc1OC [Example 14-6] | 500 to 2000
COc1ccc(-c2cc3nccn3c(SCc3cccs3)n2)cc1OC [Example 14-31] | < 500
COc1ccc(-c2cc3nccn3c(Oc3ccccc3Br)n2)cc1OC [Example 14-4] | 500 to 2000

same assay, conditions: Table 14; read-out: Activity grade

SMILES | IC50 [nM]
COc1ccc(-c2cc3nccn3c(Sc3ccncc3C(=O)O)n2)cc1OC [Example 15-2] | < 500

same assay, conditions: Table 15; read-out: Activity grade

SMILES | IC50 [nM]
COc1ccc(-c2cc3nccn3c(Sc3ccc(S(=O)(=O)N4CCCCC4)cc3)n2)cc1OC [Example 16-2] | < 500

same assay, conditions: Table 16; read-out: Activity grade

SMILES | IC50 [nM]
CCSc1nc(-c2ccc(OC)c(NCCCCN(C)C)c2)cc2nccn12 [Example 17-1] | 500 to 2000
CCSc1nc(-c2ccc(NCc3ccccc3)c(OC)c2)cc2nccn12 [Example 17-9] | 2000 to 10000

same assay, conditions: Table 17; IC50 classes; read-out: Activity grade

SMILES | IC50 [nM]
COc1ccc(-c2cc3nccn3c(Nc3cc(N)ccc3C(N)=O)n2)cc1OC [Example 11] | < 500
COc1ccc(-c2cc3nccn3c(Nc3ccc(N(C)C)cc3C(N)=O)n2)cc1OC [Example 32] | < 500
COc1ccc(-c2cc3nccn3c(Sc3ccc(CCC(N)=O)cc3)n2)cc1OC [Example 20] | < 500
COc1ccc(-c2cc3nccn3c(Nc3cc(N(C)C)ccc3C(N)=O)n2)cc1OC [Example 13] | < 500
COc1ccc(-c2cc3nccn3c(Nc3ccc(N)cc3C(N)=O)n2)cc1OC [Example 33] | < 500
COc1ccc(-c2cc3nccn3c(Nc3ccc(C(=O)NCCCO)cc3)n2)cc1OC [Example 7] | < 500
COc1ccc(-c2cc3nccn3c(Sc3ccc4c(c3)CCC(C(=O)O)C4)n2)cc1OC (centres unmarked) [Example 19] | < 500

same assay, conditions: in vitro; compounds as yielded by solid phase synthesis, purity about 40 to 90%

SMILES | Activity grade (IC50 class)
CCSc1nc(-c2ccc(S(=O)(=O)NCCN(C)C)c(OC)c2)cc2nccn12 [Example 2-8] | C-D
COc1ccc(-c2cc3nccn3c(N(C)c3ccc(C(=O)O)cc3)n2)cc1OC [Example 11-42] | C-D

same assay, conditions: in vitro; compounds as yielded by solid phase synthesis, purity about 40 to 90%; read-out: Activity grade (IC50 class)

SMILES | IC50 [nM]
COc1ccc(-c2cc3nccn3c(Nc3cc(N)ccc3C(N)=O)n2)cc1OC [Example 11] | < 500
COc1ccc(-c2cc3nccn3c(Nc3ccc4[nH]nnc4c3)n2)cc1OC [Example 11-12] | < 500
COc1ccc(-c2cc3nccn3c(Nc3cccc4c3C(=O)NC4=O)n2)cc1OC [Example 11-3] | < 500
COc1ccc(-c2cc3nccn3c(N3CCC(C#N)(c4ccccc4)CC3)n2)cc1OC [Example 9-68] | 2000 to 10000
COc1ccc(-c2cc3ncnn3c(Nc3ccccc3)n2)cc1OC [Example 9.79] | < 500
CCN(Cc1ccncc1)c1nc(-c2ccc(OC)c(OC)c2)cc2nccn12 [Example 9-52] | 500 to 2000
COc1ccc(-c2cc3nccn3c(Nc3cccc(N)c3)n2)cc1OC [Example 11-124] | < 500
COc1ccc(-c2cc3nccn3c(N3CCN(c4ccccc4F)CC3)n2)cc1OC [Example 9-47] | 2000 to 10000
COc1ccc(-c2cc3nccn3c(N3CCC(O)(c4ccc(Cl)cc4)CC3)n2)cc1OC [Example 9-64] | 2000 to 10000
COc1ccc(-c2cc3nccn3c(N3CCC(N4CCCCC4)CC3)n2)cc1OC [Example 9-63] | 2000 to 10000
COc1ccc(-c2cc3nccn3c(Nc3ccc(C(=O)NCC(=O)O)cc3)n2)cc1OC [Example 11-23] | < 500
C=CCOc1ccc(-c2cc3nccn3c(SCC)n2)cc1OC [Example 3-2] | < 500
COc1ccc(-c2cc3ncnn3c(Nc3ccccc3C(N)=O)n2)cc1OC [Example 11-102] | < 500
CCSc1nc(-c2ccc3c(c2)OCCO3)cc2nccn12 [Example 1-13] | 500 to 2000
COc1ccc(-c2cc3nccn3c(Nc3cc(N(C)C)ccc3C(N)=O)n2)cc1OC [Example 13] | < 500
CCSc1nc(-c2ccc(OC)c(OC)c2)cc2nc(C)cn12 [Example 1-8] | < 500
COc1ccc(-c2cc3nccn3c(Nc3cccc([N+](=O)[O-])c3)n2)cc1OC [Example 11-70] | < 500
COc1ccc(-c2cc3nccn3c(Sc3ccccc3OC)n2)cc1OC [Example 13-2] | < 500
COc1ccc(-c2cc3nccn3c(N3CCC(O)CC3)n2)cc1OC [Example 9-69] | 500 to 2000
COc1ccc(-c2cc3nccn3c(SC(C)C)n2)cc1OC [Example 9-9] | < 500

SMILES | IC50 [nM]
COc1ccc(-c2cc3nccn3c(Nc3cccc(C(=N)N)c3)n2)cc1OC [Example 11-66] | < 500
COc1ccc(-c2cc3nccn3c(Nc3ccc(C(N)=O)c(N)c3)n2)cc1OC [Example 11-129] | < 500
COc1ccc(-c2cc3nccn3c(Nc3ccccc3C#N)n2)cc1OC [Example 11-121] | 500 to 2000
COc1cccc(N2CCN(c3nc(-c4ccc(OC)c(OC)c4)cc4nccn34)CC2)c1 [Example 9-43] | 2000 to 10000
COc1ccc(-c2cc3nccn3c(N3CCc4ccccc43)n2)cc1OC [Example 9-13] | 500 to 2000
COc1ccc(-c2cc3nccn3c(Nc3ccc(F)cc3)n2)cc1OC [Example 11-60] | < 500
COc1ccc(-c2cc3nccn3c(Nc3ccc(CC(=O)O)cc3)n2)cc1OC [Example 11-22] | < 500
COc1ccc(-c2cc3nccn3c(N(C)c3ccc(S(=O)(=O)O)cc3)n2)cc1OC [Example 11-6] | 2000 to 10000
COc1ccc(-c2cc3nccn3c(Sc3c(C)cccc3C)n2)cc1OC [Example 13-9] | 2000 to 10000
COc1cc(-c2cc3nccn3c(Nc3ccccc3C(N)=O)n2)ccc1N1CCOCC1 [Example 9-99] | < 500
CCSc1nc(-c2ccc(OC)c(OC(C)C)c2)cc2nccn12 [Example 4-3] | < 500
COc1ccc(-c2cc3nccn3c(NC3CCCC[C@@H]3N)n2)cc1OC (some centres unmarked) [Example 9-86] | 500 to 2000
COc1ccc(-c2cc3nccn3c(N3CCC(c4ccc(O)cc4)CC3)n2)cc1OC [Example 9-60] | 500 to 2000
COc1ccc(-c2cc3nccn3c(N3CCN(c4ccccc4)CC3)n2)cc1OC [Example 9-33] | 2000 to 10000
COc1ccc(-c2cc3nccn3c(N3C(=O)c4ccccc43)n2)cc1OC [Example 9] | 2000 to 10000
CCOC(=O)CCSc1nc(-c2ccc(OC)c(OC)c2)cc2nccn12 [Example 9-28] | < 500
CCSc1nc(-c2cccc(N)c2)cc2nccn12 [Example 8, 3-(5-Ethylsulfanyl-imidazo[1,2-c]pyrimidin-7-yl)-phenylamine] | < 500
CCNc1nc(-c2ccc(OC)c(OC)c2)cc2nccn12 [Example 9-11] | < 500
COc1ccc(-c2cc3nccn3c(Nc3cccc(C(C)=O)c3)n2)cc1OC [Example 11-59] | < 500
COc1ccc(Nc2nc(-c3ccc(OC)c(OC)c3)cc3nccn23)cc1O [Example 11-92] | < 500

SMILES | IC50 [nM]
CCSc1nc(-c2ccc(SC)c(S(=O)(=O)N3CCN(CCO)CC3)c2)cc2nccn12 [Example 2-4] | 500 to 2000
COc1ccc(-c2cc3nccn3c(Sc3ccccc3CO)n2)cc1OC [Example 13-7] | < 500
CNS(=O)(=O)c1ccccc1Nc1nc(-c2ccc(OC)c(OC)c2)cc2nccn12 [Example 11-122] | < 500
COc1ccc(-c2cc3nccn3c(Nc3ccc(S(C)(=O)=O)cc3)n2)cc1OC [Example 11-127] | < 500
CCSc1nc(-c2ccc(OCCCN3CCSCC3)c(OC)c2)cc2nccn12 [Example 5-9] | < 500
COc1ccc(-c2cc3nccn3c(Nc3ccc4c(c3)n(C)c(=O)n4C)n2)cc1OC [Example 11-117] | < 500
COc1ccc(-c2cc3nccn3c(Nc3ccc(CCC4=NC(C)(C)CO4)cc3)n2)cc1OC [Example 9-22] | < 500
CCSc1nc(-c2ccc(OC)cc2)cc2nccn12 [Example 1-5] | 500 to 2000
COc1ccc(-c2cc3nccn3c(Nc3ccc(C)cc3)n2)cc1OC [Example 11-9] | < 500
CCSc1nc(-c2ccc(OC)c(OCCCN3CCSCC3)c2)cc2nccn12 [Example 5-10] | 500 to 2000
CCSc1nc(-c2ccc(OC)c(OCCCN3CCOCC3)c2)cc2nccn12 [Example 5-11] | 500 to 2000
COc1ccc(-c2cc3nccn3c(NCCN3CCCCC3)n2)cc1OC [Example 9-82] | 2000 to 10000
CCOC(=O)CSc1nc(-c2ccc(OC)c(OC)c2)cc2nccn12 [Example 9-89] | 500 to 2000
CCOCCOc1ccc(-c2cc3nccn3c(SCC)n2)cc1OCCOCC [Example 6-2] | 500 to 2000
COc1ccc(-c2cc3nccn3c(Sc3ccccc3Br)n2)cc1OC [Example 13-6] | < 500
COc1ccc(-c2cc3nccn3c(Nc3ccccc3C(=O)N(C)C)n2)cc1OC [Example 11-1] | 500 to 2000
COc1ccc(Nc2nc(-c3ccc(OC)c(OC)c3)cc3nccn23)c(OC)c1 [Example 11-65] | < 500
COc1ccc(-c2cc3nccn3c(Nc3cccc(C)c3)n2)cc1OC [Example 11-7] | < 500
